# Assay results taken from patent US10245249B2, “Pharmaceutical compositions comprising nitroxyl donors” (Cardioxyl Pharmaceuticals, Inc., priority 2013, dated 2019).
# Legend:
# [1] = tested on: dogs; experiment: Canine implanted central catheter 72 hour continuous infusion model (clinical and microscopic pathology of vasculature); format: in vivo; conditions: for NOAEL (μg/kg/min) (molar equivalent to CXL-1020): based on microscopic pathology markers (edema, hemorrhage, vascular and perivascular inflammation); for toxicological profile relative to CXL-1020: microscopic pathology, Table 8
# Method: To determine the cause of the inflammation and hind limb swelling, a series of 72-hour continuous infusion investigative studies were conducted over the following 6 months. […] The first site of inflammation, the catheter insertion site, caused the dog hind limb swelling and inflammation observed in the early-terminated follow-up study. Increasing infusate pH from 4 to 6 decreased inflammation, improving the inflammatory profile by approximately 3-fold (see FIG. 4).
# Confirmation of this was obtained through evaluating the nitroxyl donors through detailed histopathology of the vasculature at the site of insertion of into the femoral vein (15 cm distal to the catheter tip), along the catheter track to the catheter tip, and past the tip downstream 20 cm.
# A composite score was calculated from the sum of these findings scores. In FIG. 3, the cumulative histology composite score ranges from 0-2 (low severity) to 11-12 (high severity). […] The NOAEL values determined based on these microscopic pathology markers for a series of nitroxyl donors, expressed in molar equivalent dose rates (μg/kg/min) to CXL-1020, are provided in Table 8.
# [2] = tested on: beagle dogs; experiment: Canine peripheral vein toxicity model, 24 hour infusion (clinical pathology markers of inflammation: WBC, fibrinogen, CRP); format: in vivo; conditions: for NOAEL (μg/kg/min) (actual): based on clinical pathology markers (WBC, fibrinogen, CRP), 24 hour infusion, CAPTISOL 7% w/v, pH 4
# Method: Key inflammatory markers measured include white blood cells (WBC), fibrinogen, and C-reactive protein (CRP).
# After 24 hours of infusion, clinical pathology changes similar to those observed in previous studies using an implanted central catheter were detected.
# Studies were conducted in male and female beagle dogs. Animals were allowed free access to drinking water and a commercial canine diet under standard laboratory conditions. Animals were fasted prior to blood sample collections when indicated by the study protocol. Fluorescent lighting was provided via an automatic timer for approximately 12 hours per day. On occasion, the dark cycle was interrupted intermittently due to study-related activities. Temperature and humidity were monitored and recorded daily and maintained to the maximum extent possible between 64° F. to 84° F. and 30% to 70%, respectively. The dogs were acclimated for a period of at least 1 week. During this period, the animals were weighed weekly and observed with respect to general health and any signs of disease. The animals were acclimated to wearing a jacket for at least three days prior to dose administration. Additionally, the animals were also acclimated to wearing an Elizabethan collar (e-collar) during the jacket acclimation.
# Animals were catheterized the day prior to dose administration. A percutaneous catheter was placed (using aseptic technique and sterile bandaging) in the cephalic vein distal to the elbow. The animals were free-moving in their cages during continuous infusion dose administration. To facilitate continuous infusion dose administration, the peripheral catheter was attached to an extension set routed underneath a canine jacket and then attached to a tether infusion system. To prevent the animals from accessing/removing the peripherally placed percutaneous catheter, the catheterization site was bandaged using Vet Wrap and an e-collar was placed on the animals for the duration of the treatment (i.e., the catheterized period). During the pretreatment period, the venous catheter was infused continuously at a rate of approximately 2-4 mL/hr with 0.9% sodium chloride for injection, USP (saline) to maintain catheter patency. Prior to dosing, the infusion system was pre-filled (slow bolus infusion) with the respective dosing solution to ensure that dosing began as soon as the infusion pump was started. The infusion line was connected to a reservoir containing the control or test compound and the infusion was started. Test compositions were infused continuously, at a predetermined constant infusion rate (1 or 2 mL/kg/hr), for 24 hours and were compared at molar equivalent dose rates.
# A detailed clinical examination of each animal was performed twice daily and body temperature measurements and blood samples for clinical pathology were collected from all animals pre-dose and 6 hours, 12 hours, 24 hours and 72 hours post start of composition infusion. At the termination of the study, all animals were euthanized at their scheduled necropsy and complete necropsy examinations were performed. Selected tissues were collected, fixed and stored for potential future microscopic examination. The cephalic vein containing the infusion catheter was dissected intact along with the brachial vein and examined along its entire length. The location of the catheter tip was marked on the unfixed specimen. After fixation, the specimen was trimmed and processed to slide to provide transverse histologic sections representing the catheter tip and surrounding tissues both proximal and distal to the catheter tip (i.e., 1 cm distal to the catheter tip, at the catheter tip, and 1, 5, 10, 15, and 20 cm proximal to the catheter tip). Relative to the catheter tip, “proximal” was defined as closer to the heart and “distal” was defined as further from the heart.
# Each compound was formulated with CAPTISOL® (7% w/v) in sterile water at a pH of 4. […]
Compound,NOAEL (μg/kg/min) (molar equivalent to CXL-1020) [1],toxicological profile relative to CXL-1020 [1],NOAEL (μg/kg/min) (actual) [2],NOAEL compared with CXL-1020 ([2]; clinical pathology markers),"findings around catheter insertion site, at catheter tip and downstream ([1]; 72-hour infusion, dogs)","dose rates at which significant undesirable side effects were still demonstrated ([1]; infusate pH 6, dogs)","dose rates causing clinical pathology changes consistent with an inflammatory process ([1]; pH 4 formulation, 1:1 molar CXL-1020:CAPTISOL, diluted in 5% dextrose, 72-hour infusion, dogs)","finding in upper forelimb downstream from catheter tip ([2]; after 6 hours of infusion, percutaneous catheter in cephalic vein, dogs)","microscopic pathology at the catheter tip ([2]; after 24 hours of infusion, percutaneous catheter in cephalic vein, dogs)","improvement relative to CXL-1020 ([2]; NOAEL, clinical pathology markers)"
"Cn1ccc(S(=O)(=O)NO)n1 [Compound 85, N-Hydroxy-1-methyl-1H-pyrazole-3-sulfonamide]",≥180 µg/kg/min,substantially improved toxicological profile relative to CXL-1020,3 µg/kg/min,significantly higher than that of CXL-1020,,,,,,
"CS(=O)(=O)c1ccccc1S(=O)(=O)NO [CXL-1020, N-hydroxy-2-methanesulfonylbenzene-1-sulfonamide, reference compound]",<3 µg/kg/min,,<0.03 µg/kg/min,,Vascular inflammation,greater than or equal to 3 μg/kg/min,greater than or equal to 0.03 μg/kg/min,significant edema,severe thrombophlebitis,
"O=S(=O)(NO)c1ccco1 [Compound 83, N-Hydroxyfuran-2-sulfonamide]",≥90 µg/kg/min,substantially improved toxicological profile relative to CXL-1020,3 µg/kg/min,significantly higher than that of CXL-1020,,,,,,
"Cc1ccc(S(=O)(=O)NO)s1 [Compound 84, N-Hydroxy-5-methylthiophene-2-sulfonamide]",≥60 µg/kg/min,substantially improved toxicological profile relative to CXL-1020,10 µg/kg/min,significantly higher than that of CXL-1020,,,,,,
"Cc1ccc(S(=O)(=O)NO)o1 [Compound 1, N-Hydroxy-5-methylfuran-2-sulfonamide]",≥180 µg/kg/min,,>20 µg/kg/min,significantly higher than that of CXL-1020,,,,,,greater than 660 fold
"CS(=O)(=O)c1cccc(S(=O)(=O)NO)c1 [Compound 2, N-Hydroxy-3-methanesulfonylbenzene-1-sulfonamide]",≥180 µg/kg/min,,3 µg/kg/min,significantly higher than that of CXL-1020,,,,,,
